The source of these data is BindingDB's records for PubMed 3012067 (Johns Hopkins University, 1986).

Each structure is given as a SMILES string. “And” between values parts separate entries of the source, which are not always exact repeats. Identical values can stand only once.

The assay has as its target Voltage-dependent L-type calcium channel subunit alpha-1C (Rattus norvegicus, UniProt P22002).

Voltage-dependent L-type calcium channel subunit alpha-1C, sequence (P22002 whole entry): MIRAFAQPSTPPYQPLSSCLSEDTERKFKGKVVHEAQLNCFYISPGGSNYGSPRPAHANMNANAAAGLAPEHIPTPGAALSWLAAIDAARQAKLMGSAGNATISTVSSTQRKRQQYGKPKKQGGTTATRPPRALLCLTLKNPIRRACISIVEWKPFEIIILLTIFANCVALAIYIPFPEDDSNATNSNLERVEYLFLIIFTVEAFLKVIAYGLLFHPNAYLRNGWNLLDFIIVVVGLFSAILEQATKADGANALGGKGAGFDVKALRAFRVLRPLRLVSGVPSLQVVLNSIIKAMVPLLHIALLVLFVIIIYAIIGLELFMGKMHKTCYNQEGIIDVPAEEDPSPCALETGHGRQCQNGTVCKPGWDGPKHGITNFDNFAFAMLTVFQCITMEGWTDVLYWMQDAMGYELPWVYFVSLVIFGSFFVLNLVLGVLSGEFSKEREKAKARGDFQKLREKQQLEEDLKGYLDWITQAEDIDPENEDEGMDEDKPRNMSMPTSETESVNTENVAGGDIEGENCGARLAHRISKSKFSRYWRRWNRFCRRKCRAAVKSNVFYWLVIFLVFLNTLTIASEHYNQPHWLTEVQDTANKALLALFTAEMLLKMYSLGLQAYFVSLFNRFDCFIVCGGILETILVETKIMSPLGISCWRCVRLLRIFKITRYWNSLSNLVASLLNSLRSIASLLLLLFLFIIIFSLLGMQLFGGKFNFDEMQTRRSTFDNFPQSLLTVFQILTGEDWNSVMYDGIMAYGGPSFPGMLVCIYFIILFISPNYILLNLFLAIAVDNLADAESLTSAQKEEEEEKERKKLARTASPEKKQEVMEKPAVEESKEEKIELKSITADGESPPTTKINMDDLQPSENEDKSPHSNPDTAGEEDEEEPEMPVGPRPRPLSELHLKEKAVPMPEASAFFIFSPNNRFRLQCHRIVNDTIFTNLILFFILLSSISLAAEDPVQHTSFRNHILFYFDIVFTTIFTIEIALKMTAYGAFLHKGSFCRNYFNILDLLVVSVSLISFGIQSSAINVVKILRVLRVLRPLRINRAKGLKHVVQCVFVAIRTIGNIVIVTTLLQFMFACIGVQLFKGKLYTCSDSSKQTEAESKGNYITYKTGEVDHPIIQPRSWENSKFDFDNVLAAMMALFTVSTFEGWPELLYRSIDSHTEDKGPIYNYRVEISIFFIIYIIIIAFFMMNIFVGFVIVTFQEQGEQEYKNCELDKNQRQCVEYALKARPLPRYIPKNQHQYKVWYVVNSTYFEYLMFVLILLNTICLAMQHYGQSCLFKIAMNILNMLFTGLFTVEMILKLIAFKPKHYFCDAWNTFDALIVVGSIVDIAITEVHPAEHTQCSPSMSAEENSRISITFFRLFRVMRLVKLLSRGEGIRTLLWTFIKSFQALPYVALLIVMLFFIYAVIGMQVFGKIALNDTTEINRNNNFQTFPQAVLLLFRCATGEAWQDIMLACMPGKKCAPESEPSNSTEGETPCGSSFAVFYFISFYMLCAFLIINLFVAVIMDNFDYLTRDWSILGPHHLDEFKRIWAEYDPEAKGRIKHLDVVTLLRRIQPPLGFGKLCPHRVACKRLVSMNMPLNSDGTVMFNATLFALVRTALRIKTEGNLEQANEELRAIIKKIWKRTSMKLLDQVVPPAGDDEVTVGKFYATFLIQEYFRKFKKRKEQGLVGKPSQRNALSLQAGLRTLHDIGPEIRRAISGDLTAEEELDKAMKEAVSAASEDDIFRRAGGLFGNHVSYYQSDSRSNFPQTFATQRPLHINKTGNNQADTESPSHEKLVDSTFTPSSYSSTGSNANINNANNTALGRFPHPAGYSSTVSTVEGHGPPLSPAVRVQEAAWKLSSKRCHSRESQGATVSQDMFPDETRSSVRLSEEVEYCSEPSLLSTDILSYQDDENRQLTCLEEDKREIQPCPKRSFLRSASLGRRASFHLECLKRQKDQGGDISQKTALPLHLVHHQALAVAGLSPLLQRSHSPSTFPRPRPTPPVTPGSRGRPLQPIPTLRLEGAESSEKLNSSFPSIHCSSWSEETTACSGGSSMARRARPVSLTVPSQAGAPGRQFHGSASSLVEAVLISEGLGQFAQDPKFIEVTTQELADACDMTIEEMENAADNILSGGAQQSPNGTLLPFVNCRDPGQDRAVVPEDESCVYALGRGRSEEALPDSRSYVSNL

Consider `CCOP(=O)(Cc1ccc(-c2nc3ccccc3s2)cc1)OCC` [NSC_53421], for which the Ki (usually a dissociation constant, usually derived from enzyme kinetics or from competition with a known ligand) was 1690 nM and 442 nM.

For `CC(C)COC[C@H](CN(Cc1ccccc1)c1ccccc1)N1CCCC1`, the Ki is 547 nM and 241 nM. Regarding `COC(=O)C1=C(C)N=C(C)C([N+](=O)[O-])C1c1ccccc1C(F)(F)F` (centres undefined) [Bay k 8644], the Ki was determined as 1110 nM. With `Cc1cccc(C)c1NC(=O)CN1CCN(CCCC(c2ccc(F)cc2)c2ccc(F)cc2)CC1`, the Ki is 305 nM and 188 nM. In the case of `CCOC(=O)C1=C(C)N=C(C)C(C(=O)OCC)C1c1ccccc1C(F)(F)F` (centres undefined) [NSC_168089], the Ki was 268 nM.

Turning to `CC(Cc1ccccc1)NCCC(c1ccccc1)c1ccccc1` (centres undefined), the Ki is 384 nM and 320 nM. With `COc1ccc(CCN(C)CCCC(C#N)(c2cc(OC)c(OC)c(OC)c2)C(C)C)cc1OC` (centres undefined) [GALLOPAMIL], the Ki is 21.4 nM and 22.5 nM. As to `CN(C)C(=O)C(CCN1CCC(O)(c2ccc(Cl)cc2)CC1)(c1ccccc1)c1ccccc1`, the Ki is 205 nM and 127 nM. As to `COc1ccc(CCN(C)CCCC2(c3ccc(OC)c(OC)c3)S(=O)(=O)CCCS2(=O)=O)cc1OC`, the Ki is 1440 nM and 416 nM.
